Experimental findings from patent US10293004B2, “Butyrate-producing bacterium and use thereof” (KABUSHIKI KAISHA YAKULT HONSHA, priority 2014, dated 2019) are described below.

The assay can be described thus: Biochemical properties: saccharide fermentability (API-ZYM, Rapid ID32A API, API KENKI 20A). Also on record: key: +: positive reaction; −: negative reaction; +^w: weak reaction. The text has this:
Commercially available API-ZYM, Rapid ID32A API, and API KENKI 20A (SYSMEX bioMerieux Co., Ltd.) were used in the testing of biochemical properties of various bacterial strains. The testing method followed the product manuals.

For “A. hadrus (Eubacterium hadrum) YIT 12355 (NITE BP-01832)”, the Aesculin result is listed as “+”, the D-Cellobiose entry is on record as “+^w”, the D-Mannitol entry is “+” and the D-Raffinose result was “−”. Further, the D-Xylose entry was “+”, the Glycerol entry is recorded as “+^w”, the L-Arabinose entry is on record as “+” and the L-Rhamnose entry was “+”. For the same substance, the L-Sorbitol result is recorded as “+”, the Mallose entry is “+” and the Salicin entry is “+”.
